For 26 molecules, IC50 results are on record in patent US20040024024A1, “Aromatic sulfone hydroxamates and their use as protease inhibitors” (priority 2001, published 2004).

One experiment addresses T1, Human recombinant MMP-2 (Homo sapiens, UniProt P08253).
T1 construct: made in house; host or cells: MMP-2-transfected p2AHT2 cells
T1 sequence (P08253 110-660): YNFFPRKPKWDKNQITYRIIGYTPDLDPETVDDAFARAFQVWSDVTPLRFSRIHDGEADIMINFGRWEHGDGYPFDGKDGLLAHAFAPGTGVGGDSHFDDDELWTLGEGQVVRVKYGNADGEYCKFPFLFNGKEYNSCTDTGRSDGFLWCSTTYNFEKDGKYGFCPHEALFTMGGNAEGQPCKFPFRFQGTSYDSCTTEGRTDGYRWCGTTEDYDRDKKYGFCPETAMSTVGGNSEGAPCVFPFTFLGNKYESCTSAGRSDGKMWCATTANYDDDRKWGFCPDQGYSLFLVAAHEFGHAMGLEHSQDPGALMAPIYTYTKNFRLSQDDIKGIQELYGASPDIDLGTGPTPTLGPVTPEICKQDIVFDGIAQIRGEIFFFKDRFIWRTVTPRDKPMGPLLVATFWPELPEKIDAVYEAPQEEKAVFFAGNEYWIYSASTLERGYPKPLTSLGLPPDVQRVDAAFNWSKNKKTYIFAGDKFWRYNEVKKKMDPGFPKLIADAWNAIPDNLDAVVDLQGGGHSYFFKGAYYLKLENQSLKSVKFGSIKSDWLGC
The experiment can be described thus: In vitro MMP inhibition, IC50 determination (fluorogenic substrate I). The experiment is classed as biochemical. The note with it: value outside parenthesis. Summed up:
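IC50 was derived from the concentration-dependent fall in fluorescence (ex 328, em 415 nm) on Gly-Leu cleavage of 4 μM MCA/Dpa-quenched substrate I. Assays ran at room temperature in pH 7.5 Tris/NaCl/CaCl2/Brij buffer with MMP-2 activated by trypsin or APMA; inhibitors were diluted from 1% DMSO stocks.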

Another experiment addresses T2, Human recombinant MMP-13 (Homo sapiens, UniProt P45452).
T2 construct: made in house; host or cells: baculovirus / insect cells
The experiment is described as above. Type of experiment: biochemical. The note with it: value outside parenthesis. The procedure, abridged: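 Fluorescence at 415 nm (excitation 328 nm) reports Gly-Leu cleavage of 4 μM quenched methoxycoumarin peptide substrate I. Human recombinant MMP-13, activated by trypsin or APMA, was incubated at room temperature with varied inhibitor concentrations in pH 7.5 Tris/NaCl/CaCl2 buffer; IC50 derived from reduced fluorescence.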

What is called IC50 is the concentration that inhibits the measured activity by half. As to `O=C(NO)C1(S(=O)(=O)c2ccc(OCCCc3nc(-c4ccc(OC(F)(F)F)cc4)no3)cc2)CCN(Cc2ccccc2)CC1` [Example 93], the IC50 is 747 nM on Human recombinant MMP-2 and 15.5 nM on Human recombinant MMP-13.
Take `CC(C)c1ccc(-c2cccc(CCOc3ccc(S(=O)(=O)C4(C(=O)NO)CCOCC4)cc3)c2)cc1` [Example 109]: the results for the IC50 at Human recombinant MMP-2 and on Human recombinant MMP-13 were 5410 nM and 152 nM, respectively.
With `O=C(NO)C1(S(=O)(=O)c2ccc(OCCc3cccc(-c4cc(F)cc(F)c4)c3)cc2)CCOCC1` [Example 110], the values for the IC50 on Human recombinant MMP-2 and on Human recombinant MMP-13 were 1200 nM and 7.6 nM, respectively.
For `O=C(NO)C1(S(=O)(=O)c2ccc(OCCc3cccc(-c4cccc(F)c4)c3)cc2)CCOCC1` [Example 111], the IC50 at Human recombinant MMP-2 worked out at 559 nM; on Human recombinant MMP-13 it was 2 nM.
The like results for `O=C(NO)C1(S(=O)(=O)c2ccc(OCCc3cccc(-c4ccc(OC(F)(F)F)cc4)c3)cc2)CCOCC1` [Example 112] were, in that order, 66.4 nM and 37.9 nM.
In the case of `O=C(NO)C1(S(=O)(=O)c2ccc(OCCc3cccc(-c4ccccc4Cl)c3)cc2)CCOCC1` [Example 114], the IC50 stood at 1010 nM at Human recombinant MMP-2 and 5.2 nM at Human recombinant MMP-13.
As to `Cc1ccccc1-c1cccc(CCOc2ccc(S(=O)(=O)C3(C(=O)NO)CCOCC3)cc2)c1` [Example 116], the results for the 50% inhibitory concentration (IC50) at Human recombinant MMP-2 and on Human recombinant MMP-13 were 1050 nM and 11.2 nM, respectively.
The matching figures for `Cc1ccc(-c2cccc(CCOc3ccc(S(=O)(=O)C4(C(=O)NO)CCOCC4)cc3)c2)cc1C` [Example 117]: 1740 nM and 16 nM.
The matching figures for `Cc1cc(-c2cccc(CCOc3ccc(S(=O)(=O)C4(C(=O)NO)CCOCC4)cc3)c2)ccc1Cl` [Example 118]: 1860 nM and 29.8 nM.
On to `COc1ccc(-c2cccc(CCOc3ccc(S(=O)(=O)C4(C(=O)NO)CCOCC4)cc3)c2)cc1C` [Example 119], for which the IC50 worked out at 1190 nM at Human recombinant MMP-2 and 18.3 nM on Human recombinant MMP-13.
On to `O=C(NO)C1(S(=O)(=O)c2ccc(OCCc3cccc(-c4ccc(Cl)c(Cl)c4)c3)cc2)CCOCC1` [Example 121], for which the IC50 was 2470 nM on Human recombinant MMP-2 and 21.6 nM at Human recombinant MMP-13.
Consider `O=C(NO)C1(S(=O)(=O)c2ccc(OCCc3cccc(-c4ccc(Cl)cc4Cl)c3)cc2)CCOCC1` [Example 124], for which the values for the concentration for half-maximal inhibition (IC50) at Human recombinant MMP-2 and at Human recombinant MMP-13 were 2150 nM and 21.9 nM, respectively.
As for `O=C(NO)C1(S(=O)(=O)c2ccc(OCCc3cccc(-c4cc(Cl)cc(Cl)c4)c3)cc2)CCOCC1` [Example 126], the IC50 at Human recombinant MMP-2 is 3260 nM; at Human recombinant MMP-13, 349 nM.
The matching figures for `COCCN1CCC(C(=O)NO)(S(=O)(=O)c2ccc(OCCCc3nc(-c4ccc(CC(C)C)cc4C)no3)cc2)CC1` [Example 128]: 659 nM and 23.7 nM.
With `NC(=O)c1cccc(-c2noc(CCCOc3ccc(S(=O)(=O)C4(C(=O)NO)CCN(C5CC5)CC4)cc3)n2)c1` [Example 129], the half-inhibitory concentration (IC50) on Human recombinant MMP-2 is 41.4 nM; on Human recombinant MMP-13, 1.9 nM.
Take `COCCN1CCC(C(=O)NO)(S(=O)(=O)c2ccc(OCCCc3nc(-c4ccc(Br)cc4C)no3)cc2)CC1` [Example 135]: the values for the IC50 on Human recombinant MMP-2 and on Human recombinant MMP-13 were 24.3 nM and 2.9 nM, respectively.
In the case of `O=C(NO)C1(S(=O)(=O)c2ccc(OCCCc3nc(C4CCCCC4)no3)cc2)CCN(C2CC2)CC1` [Example 137], the figures for the IC50 at Human recombinant MMP-2 and on Human recombinant MMP-13 were 20.4 nM and 7 nM, respectively.
The matching figures for `Cc1cc(-c2cccc(CCCOc3ccc(S(=O)(=O)C4(C(=O)NO)CCOCC4)cc3)c2)ccc1Cl` [Example 166]: 3080 nM and 136 nM.
Regarding `Cc1cc(-c2cccc(CCCOc3ccc(S(=O)(=O)C4(C(=O)NO)CCOCC4)cc3)c2)ccc1F` [Example 168], the figures for the IC50 on Human recombinant MMP-2 and on Human recombinant MMP-13 were 3430 nM and 34.3 nM, respectively.
Consider `O=C(NO)C1(S(=O)(=O)c2ccc(OCCCc3cccc(-c4ccc(Cl)c(Cl)c4)c3)cc2)CCOCC1` [Example 169], for which the half-inhibitory concentration (IC50) stood at 4360 nM on Human recombinant MMP-2 and 70.7 nM on Human recombinant MMP-13.
For the molecule `O=C(NO)C1(S(=O)(=O)c2ccc(OCCCc3cccc(-c4ccc(F)c(F)c4)c3)cc2)CCOCC1` [Example 170], the IC50 on Human recombinant MMP-2 was determined as 1610 nM; at Human recombinant MMP-13 it was 3.3 nM.
For the molecule `O=C(NO)C1(S(=O)(=O)c2ccc(OCCCc3cccc(-c4ccc(Cl)cc4Cl)c3)cc2)CCOCC1` [Example 171], the figures for the 50% inhibitory concentration (IC50) at Human recombinant MMP-2 and at Human recombinant MMP-13 were 2290 nM and 62.8 nM, respectively.
As to `O=C(NO)C1(S(=O)(=O)c2ccc(OCCCc3cccc(-c4cc(Cl)cc(Cl)c4)c3)cc2)CCOCC1` [Example 172], the half-maximal inhibitory concentration (IC50) at Human recombinant MMP-2 is 5160 nM; on Human recombinant MMP-13, 377 nM.
In the case of `CCCCc1ccc(-c2noc(CCCOc3ccc(S(=O)(=O)C4(C(=O)NO)CCOCC4)cc3)n2)c(C)c1` [Example 183], the IC50 came out at 708 nM on Human recombinant MMP-2 and 21 nM at Human recombinant MMP-13.
Turning to `COCCN1CCC(C(=O)NO)(S(=O)(=O)c2ccc(OCCCc3nc(-c4ccc(C5(c6ccccc6)CC5)cc4)no3)cc2)CC1` [Example 185], the concentration for half-maximal inhibition (IC50) on Human recombinant MMP-2 is 84.7 nM; on Human recombinant MMP-13, 12.4 nM.
Take `COCCN1CCC(C(=O)NO)(S(=O)(=O)c2ccc(OCCCc3nc(-c4cccc5ccccc45)no3)cc2)CC1` [Example 199]: the IC50 is 133 nM at Human recombinant MMP-2 and 7.4 nM on Human recombinant MMP-13.
